Data as given in patent US12180255B2, “Compositions and methods for derepressing RE1 silencing transcription factor target genes” (Alcamena Stem Cell Therapeutics, LLC, priority 2019, dated 2024).
Several values for one entry are separate records, joined by “and”; a condition that tells them apart may be missing. Equal entries are not always repeated. Where a SMILES comes first, the peptide text is derived from it. [ ]: non-standard residue; d: D form. Gly(Dodecyl) = CCCCCCCCCCCC[C@H](N)C(=O)O

How the values were obtained:
PPM1A = target: T1, PPM1A (Homo sapiens, UniProt P35813); assay: Off target phosphatase activity on phosphorylated REST peptide; type: biochemical; settings: 10000 nM RPP
T1 sequence (P35813 1-382): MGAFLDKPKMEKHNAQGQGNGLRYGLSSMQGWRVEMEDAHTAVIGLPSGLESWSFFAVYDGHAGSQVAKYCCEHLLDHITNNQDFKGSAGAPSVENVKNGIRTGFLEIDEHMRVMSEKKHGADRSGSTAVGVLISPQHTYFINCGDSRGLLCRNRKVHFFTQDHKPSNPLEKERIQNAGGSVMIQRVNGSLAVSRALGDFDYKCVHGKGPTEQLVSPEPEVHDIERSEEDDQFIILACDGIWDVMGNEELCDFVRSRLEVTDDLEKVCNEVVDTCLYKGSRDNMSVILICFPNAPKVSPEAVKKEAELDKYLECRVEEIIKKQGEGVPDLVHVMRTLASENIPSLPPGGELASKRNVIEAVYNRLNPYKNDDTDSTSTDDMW

PP3CA = PP3CA (Homo sapiens, UniProt Q08209); assay: as above; type: biochemical; settings: 10000 nM RPP
CTDSP1 = target: T2, CTDSP1 (Homo sapiens, UniProt Q9GZU7); assay: In vitro CTDSP1 phosphatase activity on phosphorylated REST peptide; type: biochemical; settings: relative to water control
T2 construct: GSGS linker + His6 (C)
T2 sequence (Q9GZU7 with tags, fused parts or gaps): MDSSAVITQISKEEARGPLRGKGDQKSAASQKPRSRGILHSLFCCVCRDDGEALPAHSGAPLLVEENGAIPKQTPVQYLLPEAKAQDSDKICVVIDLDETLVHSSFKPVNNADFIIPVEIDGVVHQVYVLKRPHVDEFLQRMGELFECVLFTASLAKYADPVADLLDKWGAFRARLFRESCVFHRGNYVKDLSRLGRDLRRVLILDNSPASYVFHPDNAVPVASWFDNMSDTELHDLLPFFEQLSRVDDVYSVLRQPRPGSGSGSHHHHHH

PPP1CA = PPP1CA (Homo sapiens, UniProt P62136); assay: Off target phosphatase activity on phosphorylated REST peptide; type: biochemical; settings: 10000 nM RPP
Chain of PPP1CA (P62136 whole entry, species assumed): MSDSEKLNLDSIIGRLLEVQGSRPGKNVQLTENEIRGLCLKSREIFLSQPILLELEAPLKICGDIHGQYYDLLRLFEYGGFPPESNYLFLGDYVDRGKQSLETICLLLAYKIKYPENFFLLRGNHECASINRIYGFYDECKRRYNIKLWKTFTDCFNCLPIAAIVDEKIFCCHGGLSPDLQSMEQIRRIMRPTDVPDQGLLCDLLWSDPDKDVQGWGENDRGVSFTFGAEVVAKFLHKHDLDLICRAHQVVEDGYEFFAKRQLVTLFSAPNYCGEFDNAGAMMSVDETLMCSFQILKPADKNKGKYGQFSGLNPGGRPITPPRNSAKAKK

L5 DRGs = assay: qRT-PCR mRNA expression in ex vivo cultured L5 DRGs; type: cell-based, Sprague Dawley rat; settings: for Increase, BDNF mRNA / Increase, KV4.3 mRNA / Increase, KV7.2 mRNA / Increase, NGF mRNA / Increase, Nav1.8 mRNA / Increase, OPRM1 mRNA: DRG
Description: FIG. 15. […] Error bars =standard error of the mean.
L5 DRGs were dissected from adult male rats and plated in 12-well plates pre-coated with poly-D-Lysine (PDL) and laminin in a minimal volume of medium (250 ul Neurobasal™-A medium (GIBCO) supplemented with B27 (GIBCO), 50 ng/ml NGF (Sigma-Aldrich) and penicillin streptomycin) to allow attachment to the culture plate. One day after plating, DRGs were incubated with RPP (SEQ. ID NO: 12: 1 μM, 3 μM or 10 μM in culture medium, FIGS. 14 and 16; SEQ ID NOS: 13 and 14: 3 μM, FIG. 15) for 48 h. For RNA expression analysis, DRGs were lysed in 300 μl of Qiazol in a 1.5 ml tube containing Bullet Blender Pink Beads using a Bullet Blender Tissue Homogenizer (NextAdvance). Total RNA was extracted using RNeasy Midi Kit (Qiagen) according to manufacturer's instructions. Purified RNA was quantified with NanoDrop 2000 (ThermoFIsher), and reverse transcription was run using High Capacity cDNA Reverse Transcription Kit (Applied Biosystems) and 2 ng/ul RNA per reaction. For qRT-PCR, 5 ul of cDNA (corresponding to 10 ng of RNA) were mixed with to 10 ul SsoAdvanced™ Universal SYBR® Green Supermix (BioRad) and 1 ul of each primer (final primer concentration 500 nM each). Reactions were run in triplicates in a QuantStudio™ 7 Flex Real-Time PCR system (Applied Biosystems). Amplification data were analyzed using the comparative cycle threshold (ΔΔCt) method and β-actin as calibrator. Primers were as follows: β-actin: F-[…] (SEQ ID NO: 340), R-[…] (SEQ ID NO: 333); KV4.3: F-[…] (SEQ ID NO: 341), R-[…] (SEQ ID NO: 342); KV7.2 F-[…] AG (SEQ ID NO: 343), R-[…] (SEQ ID NO: 344); OPRM1: F-[…] (SEQ ID NO: 345), R-[…] (SEQ ID NO: 346).

[1] = various concentrations, 48 h, relative to water control
[2] = whole DRG ex vivo, 3 μM, 48 hours
[3] = whole DRG ex vivo, 10 μM, 48 hours

Compound: CCCCCCCCCCCC[C@@H]1NC(=O)[C@@H](CCCNC(=N)N)NC(=O)[C@@H](CCCNC(=N)N)NC(=O)[C@@H](Cc2c[nH]c3ccccc23)NC(=O)[C@@H](Cc2c[nH]c3ccccc23)NC(=O)[C@@H](CCCNC(=N)N)NC(=O)[C@@H](CCC(=O)O)NC(=O)[C@@H](CC(=O)O)NC(=O)[C@@H](CC(C)C)NC(=O)[C@@H](CCC(=O)O)NC(=O)[C@H]2CCCN2C(=O)[C@H]2CCCN2C(=O)[C@@H](CCC(=O)O)NC(=O)[C@H]2CCCN2C(=O)[C@H]2CCCN2C(=O)[C@@H](CC(C)C)NC(=O)[C@H]2CCCN2C(=O)[C@@H](CCCCN)NC(=O)[C@@H](CCCNC(=N)N)NC(=O)[C@@H](CCCNC(=N)N)NC(=O)[C@@H](CCCNC(=N)N)NC(=O)[C@@H](CCCNC(=N)N)NC(=O)[C@@H](CCCNC(=N)N)NC1=O [SEQ ID NO: 12] (cyclo([dR][dW][dW][dR][dR][Gly(Dodecyl)][dR][dR][dR][dR][dR][dK][dP][dL][dP][dP][dE][dP][dP][dE][dL][dD][dE]))
- % Activity (Average N = 5) (PPM1A): 102.786%
- % Activity (Average N = 5) (PP3CA): 100.222%
- % Activity (Average N = 5) (CTDSP1; 10 nM RPP): 89.97%
- % Activity (Average N = 5) (CTDSP1; 20 nM RPP): 48.7%
- % Activity (Average N = 5) (CTDSP1; 40 nM RPP): 34.46%
- % Activity (Average N = 5) (CTDSP1; 60 nM RPP): 31.17%
- % Activity (Average N = 5) (CTDSP1; 80 nM RPP): 22.67%
- % Activity (Average N = 5) (CTDSP1; 100 nM RPP): 13.72%
- % Activity (Average N = 5) (PPP1CA): 101.136%
- Increase, BDNF mRNA (L5 DRGs; 0.3 μM, 48 h): 1.4x
- Increase, BDNF mRNA (L5 DRGs; 1 μM, 48 h): 1.3x
- Increase, KV4.3 mRNA (L5 DRGs; 1 μM, 48 h): 0x
- Increase, KV7.2 mRNA (L5 DRGs; 1 μM, 48 h): 0 x
- Increase, NGF mRNA (L5 DRGs; 1 μM, 48 h): No affect was observed
- Increase, Nav1.8 mRNA (L5 DRGs; 1 μM, 48 h): 0.8x
- Increase, OPRM1 mRNA (L5 DRGs; 1 μM, 48 h): 1.2x
- Increase, NGF mRNA (L5 DRGs; 1 μM, 48 h, listed as 12): 0.9x
- Increase, BDNF mRNA (L5 DRGs; 3 μM, 48 h): 1.3x
- Increase, KV4.3 mRNA (L5 DRGs; 3 μM, 48 h): 0x
- Increase, KV7.2 mRNA (L5 DRGs; 3 μM, 48 h): 6.7x
- Increase, NGF mRNA (L5 DRGs; 3 μM, 48 h): 1.25 x
- Increase, Nav1.8 mRNA (L5 DRGs; 3 μM, 48 h): 2.6x
- Increase, OPRM1 mRNA (L5 DRGs; 3 μM, 48 h): 3x
- Increase, BDNF mRNA (L5 DRGs; 10 μM, 48 h): 1.7 x
- Increase, KV4.3 mRNA (L5 DRGs; 10 μM, 48 h): 1.9x
- Increase, KV7.2 mRNA (L5 DRGs; 10 μM, 48 h): 7.5x
- Increase, NGF mRNA (L5 DRGs; 10 μM, 48 h): 1.9 x
- Increase, Nav1.8 mRNA (L5 DRGs; 10 μM, 48 h): 4x
- Increase, OPRM1 mRNA (L5 DRGs; 10 μM, 48 h): 3.9x
- mRNA expression of BDNF and NGF (in words) (L5 DRGs; [1]): increases expression of BDNF and NGF
- mRNA expression of KV4.3, KV7.2, Nav1.8 and OPRM1 (in words) (L5 DRGs; [1]): increases expression of KV4.3, KV7.2, Nav1.8 and OPRM1
- increase of NGF (L5 DRGs; whole DRG ex vivo, 3 μM): approximately 50%
- induction of KV4.3 compared to control (L5 DRGs; [2]): approximately 0 times
- induction of Nav1.8 compared to control (L5 DRGs; [2]): 2.9 times and ~3 times
- increase of BDNF expression (L5 DRGs; whole DRG ex vivo, 10 μM): ~75%
- increase of NGF (L5 DRGs; whole DRG ex vivo, 10 μM): ~2 times
- induction of KV7.2 compared to control (L5 DRGs; [3]): 9 times and ~7 times
- induction of Nav1.8 compared to control (L5 DRGs; [3]): 4.8 times and ~5 times
- increase of BDNF expression (L5 DRGs; whole DRG ex vivo, 0.3, 1, and 3 μM): approximately 25%
